Results taken from patent US8633134B2, “Substituted amidine compounds for combating animal pests” (priority 2008, dated 2014).

How the values were obtained:
Assay type in all cases: in vivo
[1] = tested on: Cotton Aphid (Aphis gossypii); experiment: Cotton aphid foliar spray test; conditions: 120 h, after 5 days, in comparison with untreated controls
Excerpt: (§1) The active compounds were formulated in cyclohexanone as a 10,000 ppm solution supplied in tubes. The tubes were inserted into an automated electrostatic sprayer equipped with an atomizing nozzle and they served as stock solutions for which lower dilutions were made in 50% acetone:50% water (v/v). A nonionic surfactant (Kinetic®) was included in the solution at a volume of 0.01% (v/v).
Cotton plants at the cotyledon stage were infested with aphids prior to treatment by placing a heavily infested leaf from the main aphid colony on top of each cotyledon. Aphids were allowed to transfer overnight to accomplish an infestation of 80-100 aphids per plant and the host leaf was removed. The infested plants were then sprayed by an automated electrostatic plant sprayer equipped with an atomizing spray nozzle. The plants were dried in the sprayer fume hood, removed from the sprayer, and then maintained in a growth room under fluorescent lighting in a 24-hr photoperiod at 25° C. and 20-40% relative humidity. Aphid mortality on the treated plants, relative to mortality on untreated control plants, was determined after 5 days.

[2] = tested on: Diamond Back Moth (Plutella xylostella); experiment: Diamond back moth leaf dip test; conditions: foliar, 120 h
Method: (§2) The active compound is dissolved at the desired concentration in a mixture of 1:1 (vol:vol) distilled water:acteon. The test solution is prepared at the day of use and in general at concentrations of […].
Leaves of Chinese cabbage were dipped in test solution and air-dried. Treated leaves were placed in petri dished lined with moist filter paper. Mortality was recorded 24, 72, and 120 hours after treatment.

[3] = tested on: Mediterranean Fruitfly (Ceratitis capitata); experiment: Mediterranean fruitfly microtiter plate diet test; conditions: 120 h
Method: For evaluating control of Mediterranean fruitfly (Ceratitis capitata) the test unit consisted of microtiter plates containing an insect diet and 50-80 C. capitata eggs. The compounds were formulated using a solution containing 75% v/v water and 25% v/v DMSO. Different concentrations of formulated compounds were sprayed onto the insect diet at 5 μl, using a custom built micro atomizer, at two replications.
After application, microtiter plates were incubated at about 28±1° C. and about 80±5% relative humidity for 5 days. Egg and larval mortality was then visually assessed.

[4] = tested on: Orchid Thrips (Dichromothrips corbetti); experiment: Orchid thrips floral-immersion test; conditions: 96 h
Method: Dichromothrips corbetti adults used for bioassay are obtained from a colony maintained continuously under laboratory conditions. For testing purposes, the test compound is diluted to a concentration of 300 ppm (wt compound: vol diluent) in a 1:1 mixture of acetone:water (vol:vol), plus 0.01% vol/vol Kinetic® surfactant.
Thrips potency of each compound is evaluated by using a floral-immersion technique. Plastic petri dishes are used as test arenas. All petals of individual, intact orchid flowers are dipped into treatment solution and allowed to dry. Treated flowers are placed into individual petri dishes along with 10-15 adult thrips. The petri dishes are then covered with lids. All test arenas are held under continuous light and a temperature of about 28° C. for duration of the assay. After 4 days, the numbers of live thrips are counted on each flower, and along inner walls of each petri dish. The level of thrips mortality is extrapolated from pre-treatment thrips numbers.

[5] = tested on: Silverleaf Whitefly (Bemisia argentifolii); experiment: Silverleaf whitefly cotton plant spray test; conditions: 72 h, 3 days after treatment, in comparison with untreated controls
Excerpt: as §1
Cotton plants at the cotyledon stage (one plant per pot) were sprayed by an automated electrostatic plant sprayer equipped with an atomizing spray nozzle. The plants were dried in the sprayer fume hood and then removed from the sprayer. Each pot was placed into a plastic cup and about 10 to 12 whitefly adults (approximately 3-5 days old) were introduced. The insects were collected using an aspirator and a nontoxic Tygon® tubing connected to a barrier pipette tip. The tip, containing the collected insects, was then gently inserted into the soil containing the treated plant, allowing insects to crawl out of the tip to reach the foliage for feeding. Cups were covered with a reusable screened lid. Test plants were maintained in a growth room at about 25° C. and about 20-40% relative humidity for 3 days, avoiding direct exposure to fluorescent light (24 hour photoperiod) to prevent trapping of heat inside the cup. Mortality was assessed 3 days after treatment, compared to untreated control plants.

[6] = tested on: Southern Armyworm (Spodoptera eridania); experiment: Southern armyworm lima bean foliar spray test; conditions: 96 h
Method: as §1
(§3) Lima bean plants (variety Sieva) were grown 2 plants to a pot and selected for treatment at the 1st true leaf stage. Test solutions were sprayed onto the foliage by an automated electrostatic plant sprayer equipped with an atomizing spray nozzle. The plants were dried in the sprayer fume hood and then removed from the sprayer. Each pot was placed into perforated plastic bags with a zip closure. About 10 to 11 armyworm larvae were placed into the bag and the bags zipped closed. Test plants were maintained in a growth room at about 25° C. and about 20-40% relative humidity for 4 days, avoiding direct exposure to fluorescent light (24 hour photoperiod) to prevent trapping of heat inside the bags. Mortality and reduced feeding were assessed 4 days after treatment, compared to untreated control plants.

[7] = tested on: Vetch Aphid (Megoura viciae); experiment: Vetch aphid leaf disk microtiter plate test; conditions: foliar, 120 h
Method: For evaluating control of vetch aphid (Megoura viciae) through contact or systemic means the test unit consisted of 24-well-microtiter plates containing broad bean leaf disks.
The compounds were formulated using a solution containing 75% v/v water and 25% v/v DMSO. Different concentrations of formulated compounds were sprayed onto the leaf disks at 2.5 μl, using a custom built micro atomizer, at two replications. After application, the leaf disks were air-dried and 5-8 adult aphids placed on the leaf disks inside the microtiter plate wells. The aphids were then allowed to suck on the treated leaf disks and incubated at about 23±1° C. and about 50±5% relative humidity for 5 days. Aphid mortality and fecundity was then visually assessed.

[8] = tested on: Tobacco Budworm (Heliothis virescens); experiment: Tobacco budworm cotton plant foliar spray test; conditions: 96 h
Method: as §1
as §3, with “Cotton” for “Lima bean”, “plants” for “plants (variety Sieva)”, “cotyledon” for “1st true leaf”, “budworm” for “armyworm”

[9] = tested on: Boll Weevil (Anthonomus grandis); experiment: Boll weevil microtiter plate diet test; conditions: 120 h
Method: For evaluating control of boll weevil (Anthonomus grandis) the test unit consisted of 24-well-microtiter plates containing an insect diet and 20-30 A. grandis eggs.
The compounds were formulated using a solution containing 75% v/v water and 25% v/v DMSO. Different concentrations of formulated compounds were sprayed onto the insect diet at 20 μl, using a custom built micro atomizer, at two replications. After application, microtiter plates were incubated at about 23±1° C. and about 50±5% relative humidity for 5 days. Egg and larval mortality was then visually assessed.

[10] = tested on: yellowfever mosquito larvae (Aedes aegypti); experiment: Larval mosquito water treatment assay; conditions: 120 h, 5 DAT (days after treatment), first tier test, in comparison with untreated controls
Method: The assay was conducted in 6-well polystyrene plates using one plate per treatment rate. Stock solutions were prepared at 100 and 1000 ppm. Screen rates were at 1 and 10 ppm. Distilled water was added to each well, control wells were treated with acetone. Temephos (Abate technical) was used as the standard at 0.1 ppm. Ten late thirdinstar yellowfever mosquito larvae (Aedes aegypti) in water were added to each well. One drop of liver powder solution (6 g in 100 ml distilled water) was added to each well as a food source daily. Plates were maintained at 22-25° C. and 25-50% RH (relative humidity) and observed daily for dead larvae and pupae at 1, 2, 3, and 5 days after treatment. Dead larvae and all pupae were removed daily. Mortality was defined as an insect incapable of coordinated movement when agitated.

[11] = tested on: Western Flower Thrips (Frankliniella occidentalis); experiment: Western flower thrips glass vial / leaf disc test; conditions: 300 ppm; 2 DAT; in comparison with untreated controls
Method: Serial dilutions of each technical grade AI were made in pure acetone. 0.5 ml of the treatment solution was deposited into the bottom of a glass vial (scintillation vial). The cap was screwed back onto the vial and inverted for about five seconds. The cap was subsequently removed and the vial laid on its side and rolled constantly, on a hot dog roller, until all the acetone had flashed off and the inner surface of the vial was dry. Cotton leave discs were also dipped simultaneously into the treatment solutions and allowed to dry. After the vials were dried, the leave discs are placed into the vials to serve as a food/water source for the thrips. Each treatment was replicated 5-fold.
Western flower thrips were aspirated into the vials, approximately 5 larvae or adults/vial. Following treatment application the vials were held in a holding room under fluorescent light and constant 26° C. Thrips mortality was assessed at 2 DAT (days after treatment), counting all thrips both dead and alive.

[12] = tested on: Cowpea Aphid (Aphis craccivora); experiment: Cowpea aphid spray test on potted cowpea plants; conditions: population reduction assessed after 24, 72, and 120 hours, in comparison with untreated controls
Method: as §2
Potted cowpea plants colonized with approximately 100-150 aphids of various stages were sprayed after the pest population has been recorded. Population reduction was assessed after 24, 72, and 120 hours.

In the case of `CN=C(NO)c1ccc(C2=NOC(c3cc(Cl)cc(Cl)c3)(C(F)(F)F)C2)cc1C` (stereo not shown) [Compound 1-1, 4-[5-(3,5-Dichloro-phenyl)-5-trifluoromethyl-4,5-dihydro-isoxazol-3-yl]-N-hydroxy-2,N′-dimethyl-benzamidine], the mortality at 300 ppm [1] is reported as ≥ 75%, the mortality at 300 ppm [2] is reported as ≥ 75% and the mortality at 2500 ppm [3] is reported as ≥ 75%. The mortality at 300 ppm [4] was ≥ 75%, the mortality at 300 ppm [5] was ≥ 75% and the mortality at 300 ppm [6] was ≥ 75%. For the same compound, the mortality at 2500 ppm [7] was ≥ 75%, the mortality at 2500 ppm [8] was ≥ 75% and the mortality at 2500 ppm [9] was ≥ 75%. The mortality at 1 ppm [10] was ≥ 75%.

With `Cc1cc(C2=NOC(c3cc(Cl)cc(Cl)c3)(C(F)(F)F)C2)ccc1C(=NO)N(C)C` (stereo not shown) [Compound 1-2] the mortality [11] was “at least 75%”.

`Cc1cc(C2=NOC(c3cc(Cl)cc(Cl)c3)(C(F)(F)F)C2)ccc1C(=NCC(F)(F)F)NC(=O)CO` (stereo not shown) [Compound 1-7, 4-[5-(3,5-Dichloro-phenyl)-5-trifluoromethyl-4,5-dihydro-isoxazol-3-yl]-N-hydroxyacetyl-2-methyl-N′-(2,2,2-trifluoro-ethyl)-benzamidine] was tested, and the mortality at 300 ppm [2] was ≥ 75%, the mortality at 2500 ppm [3] was ≥ 75% and the mortality at 300 ppm [4] was ≥ 75%. The mortality at 300 ppm [6] was ≥ 75%, the mortality at 2500 ppm [8] was ≥ 75% and the mortality at 2500 ppm [9] was ≥ 75%.

For `Cc1cc(C2=NOC(c3cc(Cl)cc(Cl)c3)(C(F)(F)F)C2)ccc1C(=NCc1ccccn1)NO` (stereo not shown) [Compound 1-8, 4-[5-(3,5-Dichloro-phenyl)-5-trifluoromethyl-4,5-dihydro-isoxazol-3-yl]-N-hydroxy-2-methyl-N′-pyridin-2-ylmethyl-benzamidine], the mortality at 300 ppm [1] was ≥ 75%, the mortality at 300 ppm [12] was ≥ 75% and the mortality at 300 ppm [2] was ≥ 75%. For the same compound, the mortality at 2500 ppm [3] was ≥ 75%, the mortality at 300 ppm [4] was ≥ 75% and the mortality at 300 ppm [6] was ≥ 75%. For the same compound, the mortality at 2500 ppm [7] was ≥ 75%, the mortality at 2500 ppm [8] was ≥ 75% and the mortality at 2500 ppm [9] was ≥ 75%.

`CC(=O)N(Cc1ccccn1)C(C(=O)C=NO)c1ccc(C2=NOC(c3cc(Cl)cc(Cl)c3)(C(F)(F)F)C2)cc1C` (stereo not shown) [Compound 1-10, N-{{4-[5-(3,5-dichloro-phenyl)-5-trifluoromethyl-4,5-dihydro-isoxazol-3-yl]-2-methyl-phenyl}-hydroxyiminoacetyl-methyl}-N-pyridin-2-ylmethyl-acetamide] was tested, and the mortality at 300 ppm [12] was ≥ 75%, the mortality at 300 ppm [2] was ≥ 75% and the mortality at 2500 ppm [3] was ≥ 75%. The mortality at 300 ppm [4] was ≥ 75%, the mortality at 300 ppm [6] was ≥ 75% and the mortality at 2500 ppm [7] was ≥ 75%. The mortality at 2500 ppm [8] was ≥ 75% and the mortality at 2500 ppm [9] was ≥ 75%.

For `Cc1nc(-c2ccc(C3=NOC(c4cc(Cl)cc(Cl)c4)(C(F)(F)F)C3)cc2C)no1` (stereo not shown) [Compound 9-2, 3-{4-[5-(3,5-Dichloro-phenyl)-5-trifluoromethyl-4,5-dihydro-isoxazol-3-yl]-2-methyl-phenyl}-5-methyl-[1,2,4]oxadiazole], the mortality at 300 ppm [2] was ≥ 75%, the mortality at 2500 ppm [3] was ≥ 75% and the mortality at 300 ppm [6] was ≥ 75%. For the same compound, the mortality at 2500 ppm [8] was ≥ 75% and the mortality at 2500 ppm [9] was ≥ 75%.

For `Cc1nc(-c2ccc(C3=NOC(c4cc(Cl)cc(Cl)c4)(C(F)(F)F)C3)cc2CC(F)(F)F)no1` (stereo not shown) [Compound 9-4, 3-{4-[5-(3,5-Dichloro-phenyl)-5-trifluoromethyl-4,5-dihydro-isoxazol-3-yl]-2-trifluoroethyl-phenyl}-5-methyl-[1,2,4]oxadiazole], the mortality at 2500 ppm [3] was ≥ 75%, the mortality at 300 ppm [6] was ≥ 75% and the mortality at 2500 ppm [8] was ≥ 75%. The mortality at 2500 ppm [9] was ≥ 75%.
